The results in this text go back to patent US5374713A, “Peptide inhibitors of phospholipase A2 purified from inflammatory sites” (Teijin Limited, priority 1990, dated 1994).

Ends that are not written are not given here.

For test [1], the target named is T1, phospholipase A2 from rat inflammatory sites (Rattus norvegicus, UniProt P14423).
T1 construct: rat inflammatory sites (Chang et al., J. Biochem., 102, 147-154, 1987); from tissue
T1 sequence (P14423 22-146): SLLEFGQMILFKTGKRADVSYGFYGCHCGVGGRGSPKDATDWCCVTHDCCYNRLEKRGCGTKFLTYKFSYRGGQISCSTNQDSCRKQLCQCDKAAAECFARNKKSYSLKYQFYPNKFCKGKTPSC
Briefly: Determination of inhibitory activity against phospholipase A2 (rat inflammatory sites). To be noted: phosphatidylethanolamine substrate, pH 9.0, 37° C., 10 minutes. The class given is biochemical. As to the method:
(§1) The activity-measuring system was prepared by adding distilled water to 100 mM Tris-HCl (ph 9.0), 4 mM calcium chloride, 0.1 mM phosphatidylethanolamine (2,000 dpm/nmol), and 10 μl sample to adjust the total volume to 240 μl, and finally 10 μl of 0.1 ng/μ1 phospholipase A2 was added. The phospholipases A2 used were from human inflammatory sites (the joint fluid from patients with rheumatoid arthritis) (Hara et al., J. Biochem., 104, 326-328, 1988), rat inflammatory sites (Chang et al., J. Biochem., 102, 147-154, 1987), and porcine pancreas (Boehringer Manheim Co.). Phosphatidylethanolamine was purified from Escherichia coli cultured in a medium to which acetic acid was added.
(§2) The reactions were conducted at 37° C. with stirring for 10 minutes. The termination of the reaction and the extraction of fatty acids generated were carried out by the Dole's method (Dole et al., J. Biol. Chem., 235, 2595-2599, 1960) and the extracted fatty acid was determined with a scintillation counter.
(§3) The lyophilyzed sample obtained in Example 1 was dissolved again in 50% acetone-0.1% trifluoroacetic acid to adjust the concentration to 10 mg/ml. The solution was further diluted stepwise with the same buffer and the inhibitory activity of phospholipase A2 from inflammatory sites was determined at individual concentrations.

Test [2] has as its target T2, phospholipase A2 from human inflammatory sites (the joint fluid from patients with rheumatoid arthritis) (Homo sapiens, UniProt P14555).
T2 construct: from human inflammatory sites (the joint fluid from patients with rheumatoid arthritis); from tissue; host or cells: joint fluid from patients with rheumatoid arthritis
T2 sequence (P14555 21-144): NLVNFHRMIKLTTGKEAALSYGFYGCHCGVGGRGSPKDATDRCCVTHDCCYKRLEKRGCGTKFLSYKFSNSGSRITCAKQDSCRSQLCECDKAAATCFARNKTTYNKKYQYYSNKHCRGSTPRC
Briefly: Determination of inhibitory activity against phospholipase A2 (human inflammatory sites). The class given is biochemical. To be noted: phosphatidylethanolamine substrate, pH 9.0, 37° C., 10 minutes. Here is the method:
as §1, §2, §3

In the case of QKDAPDHQELNLDVSLQLPSR, the IC50 in test [1] and in test [2] was roughly 500 nM in each case.

For orientation: IC50 means the concentration that gives 50% inhibition.
